# Data published in patent EP4796125A1, “TREATMENT OF PATIENT WITH NEGATIVE P53 GENE MUTATION, POSITIVE KRAS GENE MUTATION AND POSITIVE BRCA MUTATION” (Ascentawits Pharmaceuticals, Ltd., priority 2023, dated 2025).
# How the values were obtained:
# H460 P53 KO #1 = assay: In vitro proliferation under normoxia (CTG, 72 hours), Example 26; format: cell-based, human; conditions: Table 21
# Method: (§1) • 1) H460 cell suspension was added to a 96-well plate (100 µL per well), with a cell density of 2000 cells/well. • 2) The cells were cultured overnight in a 37°C, 5% CO2 incubator. • 3) Compound Treatment
# (§2) Monotherapy: 24 hours after cell plating, each well was supplemented with 99.5 µL of growth medium. Then, 0.5 µL of test compounds at different concentrations was added. The plate was gently shaken to ensure even mixing, and then placed in a 37°C, 5% CO2 incubator.
# (§3) Combination therapy: 24 hours after cell plating, each well was supplemented with 99 µL of growth medium. Then, 0.5 µL of the combination compound Nutlin-3 was added. The plate was gently shaken to ensure even mixing, and then placed in an incubator for 2 hours. Then, 0.5 µL of test compounds at different concentrations was added. The plate was gently shaken to ensure even mixing, and then placed in a 37°C, 5% CO2 incubator. • 4) The cell plate was placed in the incubator for 72 hours. • 5) The cell plate to be tested was placed at room temperature and equilibrated for 30 minutes, and 100 µL of medium was discarded from each well. • 6) 25 µL of CTG reagent was added to each well, placed on a fast shaker to shake for 2 minutes, and placed at room temperature for 30 minutes (protected from light). • 7) The chemiluminescence signal value was read using a multifunctional microplate reader with a reading time of 1000 ms. • 8) IC50 values were calculated using Graph Pad Prism 5 software.
# (§4) The p53 CRISPR/Cas9 KO plasmid (human) and p53 HDR plasmid (human) were purchased from Santa Cruz Company to construct H460 P53 KO cell lines, namely p53 knockout H460 cell lines. Three groups of H460 P53 KO cell lines were constructed and designated as H460 P53 KO # 1, H460 P53 KO # 7, and H460 P53 KO # 12.
# (§5) The process for constructing p53 gene knockout cells is briefly described as follows: • H460 cells were plated in 6-well plates with 1 × 10^6 cells/well. • H460 cells were co-transfected with p53 CRISPR/Cas9 KO plasmid (h) (sc-416469) and p53 HDR plasmid (h) (sc-416469-HDR): 125 µL Opti-MEM + 1.25 µg each of the two plasmids + 5 µL P3000; 125 µL Opti-MEM + 15 µL liposome 3000 (increase volume, expected to increase transfection efficiency); they were co-incubated for 15 minutes, and then were added dropwise to the culture medium and mixed well.
# (§6) After 48 h, 2 µg/mL puromycin was added for screening.
# (§7) Two days later, the medium was replaced with fresh 1640 medium containing 1 µg/mL puromycin, and the medium was changed every two days.
# (§8) When the cell colonies grew to a sufficient size, single colonies were picked and cultured.
# (§9) When the cell number is sufficient, samples were collected for WB identification of the colonies. Colonies with no p53 expression were the p53 knockout H460 cell clones.
# (§10) For the experimental procedures of this Example, please refer to the Experimental Procedure Overview in the section "Effects of compounds on in vitro H460 cell proliferation under normoxia" in Example 18.
# (§11) Monotherapy: Compounds AST-3424/AST were separately administered in H460 and H460 P53 KO cell lines, respectively.
# (§12) Combination therapy: Compounds AST-3424/AST were respectively used in combination with AST-3021, and respectively administeredin H460 and H460 P53 KO cell lines.
# (§13) H460 P53 KO cell lines, i.e. H460 P53 KO # 1, H460 P53 KO # 7, H460 P53 KO # 12 cell lines, were used in experiments, respectively.
# H460 P53 KO #12 = assay: as above; format: cell-based, human; conditions: Table 21
# Method: as §1, §2, §3, §4, §5, §6, §7, §8, §9, §10, §11, §12, §13
# H460 P53 KO #7 = assay: as above; format: cell-based, human; conditions: Table 21
# Method: as §1, §2, §3, §4, §5, §6, §7, §8, §9, §10, §11, §12, §13
# NCI-H460 cells = assay: In vitro proliferation under normoxia conditions (CTG, 72 hours), Example 29; format: cell-based; conditions: Homo sapiens, Table 25, normoxia, alone or + 3 µM AST-3021
# Method: (§14) • 1) NCI-H460 and NCI-H460 P53KO # 1 cell suspensions were added to 96-well plate (100 µL per well), with a cell density of 2000 cells/well. • 2) The cells were cultured overnight in a 37°C, 5% CO2 incubator. • 3) Compound Treatment
# as §2
# as §3, with “combination compound was added.” for “combination compound Nutlin-3 was added.”, “hours. Then, 0.5µL of test” for “hours. Then, 0.5 µL of test”, “well, placed at a fast” for “well, placed on a fast”, “8) IC50 (half maximal inhibitory concentration) values were” for “8) IC50 values were”, “calculated using GraphPad Prism 5” for “calculated using Graph Pad Prism 5”
# NCI-H460 P53KO #1 cells = assay: as above; format: cell-based, human; conditions: Table 25
# Method: as §14, §2
# as §3, with “combination compound was added.” for “combination compound Nutlin-3 was added.”, “hours. Then, 0.5µL of test” for “hours. Then, 0.5 µL of test”, “well, placed at a fast” for “well, placed on a fast”, “8) IC50 (half maximal inhibitory concentration) values were” for “8) IC50 values were”, “calculated using GraphPad Prism 5” for “calculated using Graph Pad Prism 5”
compound,measurement,setting,value
C[C@H](OP(=O)(N1CC1)N1CC1)c1ccc([N+](=O)[O-])c(Oc2cccc(C(=O)N(C)C)c2)c1 [AST-3424],IC50,"H460 P53 KO #1; Homo sapiens, NCI-H460, H460 P53 KO # 1, AST-3424 alone or + 3 µM AST-3021",11.3 nM
same,"Ratio (monotherapy), knockout/wild",H460 P53 KO #1; IC50 in H460 P53 KO # 1 / H460 WT,49.13
same,IC50,"H460 P53 KO #12; Homo sapiens, NCI-H460, H460 P53 KO # 12, AST-3424 alone or + 3 µM AST-3021",1.99 nM
same,"Ratio (monotherapy), knockout/wild",H460 P53 KO #12; IC50 in H460 P53 KO # 12 / H460 WT,8.65
same,IC50,"H460 P53 KO #7; Homo sapiens, NCI-H460, H460 P53 KO # 7, AST-3424 alone or + 3 µM AST-3021",23.1 nM
same,"Ratio (monotherapy), knockout/wild",H460 P53 KO #7; IC50 in H460 P53 KO # 7 / H460 WT,100.43
same,IC50,NCI-H460 cells,0.43 nM
same,IC50,"NCI-H460 P53KO #1 cells; Homo sapiens, NCI-H460 P53KO # 1, normoxia, alone or + 3 µM AST-3021",5.45 nM
same,"Ratio, knockout / wild-type",NCI-H460 P53KO #1 cells; IC50 in NCI-H460 P53KO # 1 / NCI-H460,12.67
